{
  "source": "paper PMC11078216",
  "about": "“Discovery of potent and selective activity-based probes (ABPs) for the deubiquitinating enzyme USP30” (RSC Chemical Biology, 2024)",
  "molecular_target": "T1, ALDH1A2 (Homo sapiens, UniProt O94788)",
  "T1 construct": "endogenous in cells; host or cells: HEK293T",
  "T1 sequence (O94788 1-518)": "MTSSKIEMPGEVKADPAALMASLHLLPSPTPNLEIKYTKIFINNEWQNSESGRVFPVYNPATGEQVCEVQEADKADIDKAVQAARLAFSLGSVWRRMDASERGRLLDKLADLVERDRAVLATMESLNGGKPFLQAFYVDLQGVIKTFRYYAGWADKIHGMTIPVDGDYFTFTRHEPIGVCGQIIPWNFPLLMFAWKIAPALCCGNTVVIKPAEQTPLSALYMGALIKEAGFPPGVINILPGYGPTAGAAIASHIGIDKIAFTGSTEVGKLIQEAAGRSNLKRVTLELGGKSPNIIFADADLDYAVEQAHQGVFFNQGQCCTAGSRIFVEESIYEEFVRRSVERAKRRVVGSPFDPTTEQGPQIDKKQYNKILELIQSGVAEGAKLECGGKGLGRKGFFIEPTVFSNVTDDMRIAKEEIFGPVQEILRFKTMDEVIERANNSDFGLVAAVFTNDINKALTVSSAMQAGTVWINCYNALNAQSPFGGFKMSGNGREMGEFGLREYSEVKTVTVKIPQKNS",
  "assay": "ABPP chemical proteomics (LC-MS/MS) in HEK293T cells",
  "format": "cell-based",
  "procedure": "To explore the selectivity of IMP-2587 and IMP-2586 across the whole proteome, we performed quantitative activity-based protein profiling (ABPP) in HEK293T cells following treatment with IMP-2587 or IMP-2586 (Fig. 3a). After ABP incubation, cells were lysed, and probe-labelled proteins were ligated to biotinylated capture reagents.[27] […] USP30 was outcompeted by corresponding parent inhibitors for each ABP (Fig. 5b and d and Tables S3 and S5, ESI ^†), confirming the high potency and rapid engagement of IMP-2587 and IMP-2586 in cells. […] DESI1 and DESI2 are small ubiquitin-related modifier (SUMO) proteases,[3,29–32] and IMP-2587 and IMP-2586 may offer a starting point for future development of DESI ABPs. […]\nd) Live cell probe incubation, lysate click chemistry and precipitation 6-well HEK293T cells were incubated with media containing compounds ABP 2 and ABP 4 at indicated concentrations for 1 h at 37 °C. The cells were washed with PBS and lysed with lysis buffer (50 μL (1% (v/v) Triton X-100, 0.1% (w/v) sodium dodecyl sulfate (SDS), EDTA-free complete protease inhibitor cocktail (1×, Roche) in PBS on ice for 10 min. The lysates were scraped and transferred to corresponding Lo-Bind Eppendorfs. Each lysate was sonicated for 1 minute, and the samples centrifuges at 5,000 x g at 4 °C for 5 minutes to pellet insoluble cellular debris. The supernatant was collected, and protein concentration was determined using the DC Protein Assay (Bio-Rad) as per manufacturer’s instructions, and normalised to lowest concentrated sample (e.g. 1 mg/mL, using lysis buffer). The following “click mixture” was prepared separately, preparing 6 μL for every 100 μL of […]\nCapture reagent (AzRB/AzT for ABP 2, YnT/YnB for ABP 4 10 mM in DMSO, 1 vol; final concentration […]\nCuSO4 (50 mM in water, 2 vol; final concentration in reaction 1 mM)\nTCEP (50 mM in water, 2 vol; final concentration in reaction 1 mM)\nTBTA (10 mM in DMSO, 1 vol; final concentration in reaction 100 µM)\nThe click mixture was vortexed and incubated at room temperature for 2 min before 6 μL of the mixture was added to every 100 μL of lysate. The reaction mixtures were shaken at room temperature for 1 h before being quenched with EDTA (500 mM in H2O) to a final concentration of 10 mM.\nProteins were precipitated by adding H2O (1 vol), MeOH (2 vol) and CHCl3 (0.5 vol), vortexing briefly then centrifuging at 17,000 × g for 5 min. The top H2O/MeOH layer was discarded and the middle layer of protein pellet and lower CHCl3 layer retained. The suspension was washed with MeOH (300 μL), and sonicated to break up the pellet. The proteins were pelleted by centrifugation at 10,000–17000 × g for 5–10 min or until a compact pellet was formed. The protein pellet was washed once more with MeOH (1 mL). The pellet was resuspended by sonicating and completely dissolving in 1% (w/v) SDS in PBS (to 5 mg/mL protein) before being made up to 1 mg/mL protein with PBS.\nThe lysate samples (10-20 μg) were mixed with 4× Laemmli sample loading buffer (250 mM Tris -HCl pH 6.8, 30% (v/v) glycerol, 10% (w/v) SDS, 0.05% (w/v) bromophenol blue) supplemented with 20% v/v β-mercaptoethanol (BME) and boiled for 10 min at 95 °C. The resulting protein samples were separated according to the protocol in section 3.2.c. Gel were imaged on a Typhoon imager (GE Healthcare; λEx 532 nm, λEm 575 nm for TAMRA. For protein loading quantification, gels were stained with Coomassie blue staining solution overnight, rinsed with water and imaged on an ImageQuant™ LAS 4000 imager (GE Healthcare). f) Neutravidin biotin enrichment (Affinity pull-down)\nClick chemistry and precipitation steps were carried out as described in section 3.2.d, on at least 400ug of protein per sample. The pellet was resuspended by sonicating and completely dissolving in 1% (w/v) SDS in HEPES 50 mM pH 8.0, before being made up to 1 mg/mL protein with HEPES 50 mM pH 8.0 to […]\nachieve a final concentration of 0.2% SDS. 20uL of each samples was collected as TL (Total lysate) […]\nsamples. […]",
  "data": [
    {"smiles": "N#CN1CC[C@@H](NC(=O)c2cc(-c3ccccc3Oc3ccccc3)n[nH]2)C1", "note": "[compound 3, reference compound]", "values": [
      {"measurement": "Difference (log2 fold change of enrichment)", "setting": "compound 3 out-competition with IMP-2586 labelling, HEK293T (Table S5, Fig.5d)", "value": -2.44}
    ]},
    {"smiles": "C#Cc1cccc(-c2cc(NC(=O)CC3CCN(C#N)C3)on2)c1", "note": "(stereo not shown) [IMP-2587]", "values": [
      {"measurement": "Difference (log2 fold change of enrichment)", "setting": "IMP-2587 labelling vs DMSO, 30 nM, 10 min, HEK293T (Table S2, Fig.5a)", "value": 3.97}
    ]},
    {"smiles": "N#CN1CC[C@@H](NC(=O)c2cc(-c3ccccc3Oc3ccc(N=[N+]=[N-])cc3)n[nH]2)C1", "note": "[IMP-2586]", "values": [
      {"measurement": "Difference (log2 fold change of enrichment)", "setting": "IMP-2586 labelling vs DMSO, 30 nM, 10 min, HEK293T (Table S4, Fig.5c)", "value": 3.54}
    ]},
    {"smiles": "N#CN1CC[C@H](CC(=O)Nc2cc(-c3cccc(Cl)c3)no2)C1", "note": "[compound 1, reference compound]", "values": [
      {"measurement": "Difference (log2 fold change of enrichment)", "setting": "compound 1 out-competition with IMP-2587 labelling, HEK293T (Table S3, Fig.5b)", "value": -3.93}
    ]}
  ]
}
